Measurements taken from ChEMBL document CHEMBL1201862, “PubChem BioAssay data set” (2004).
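Values below derive from 48-hour exposures of cells grown in 96-well plates, with endpoints linearly interpolated between the two concentrations bracketing the appropriate inhibition level. Here, GI50 denotes the concentration required for 50% inhibition of growth.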 The source made the active and inactive calls. Rule as the data show it: active = GI50 up to about 1.1 µM and inactive = higher.

Columns and labels:
Test in all cases: DTP human tumour cell line panel, 48 h
UO-31 = system: UO-31
HCT-116 = system: HCT-116
PC-3 = system: PC-3
MDA-MB-231 = system: MDA-MB-231
SK-MEL-2 = system: SK-MEL-2
SR = system: SR
HOP-62 = system: HOP-62
HOP-92 = system: HOP-92
HCT-15 = system: HCT-15
RPMI-8226 = system: RPMI-8226
SF-268 = system: SF-268
OVCAR-5 = system: OVCAR-5
OVCAR-8 = system: OVCAR-8
HT-29 = system: HT-29
MOLT-4 = system: MOLT-4
OVCAR-3 = system: OVCAR-3
RXF 393 = system: RXF 393
CAKI-1 = system: CAKI-1
OVCAR-4 = system: OVCAR-4
NCI-H460 = system: NCI-H460

SMILES	GI50 (UO-31)	GI50 (HCT-116)	GI50 (PC-3)	GI50 (MDA-MB-231)	GI50 (SK-MEL-2)	GI50 (SR)	GI50 (HOP-62)	GI50 (HOP-92)	GI50 (HCT-15) [µM]	GI50 (RPMI-8226)	GI50 (SF-268)	GI50 (OVCAR-5)	GI50 (OVCAR-8)	GI50 (HT-29)	GI50 (MOLT-4)	GI50 (OVCAR-3)	GI50 (RXF 393)	GI50 (CAKI-1)	GI50 (OVCAR-4)	GI50 (NCI-H460)
Cc1ccc(-n2c(C)n[nH]c2=O)cc1	> 100 µM (inactive)	> 100 µM (inactive)	> 100 µM (inactive)	> 100 µM (inactive)	> 100 µM (inactive)	> 100 µM (inactive)	> 100 µM (inactive)	> 100 µM (inactive)	> 100	> 100 µM (inactive)	> 100 µM (inactive)	> 100 µM (inactive)	> 100 µM (inactive)	> 100 µM (inactive)	> 100 µM (inactive)	> 100 µM (inactive)	> 100 µM (inactive)	–	–	–
Cc1ccc(S(=O)(=O)c2c(O)c3ccc(O)c(C)c3oc2=O)cc1	> 100 µM (inactive)	> 100 µM (inactive)	> 100 µM (inactive)	> 100 µM (inactive)	> 100 µM (inactive)	> 100 µM (inactive)	–	> 100 µM (inactive)	> 100	> 100 µM (inactive)	> 100 µM (inactive)	> 100 µM (inactive)	> 100 µM (inactive)	> 100 µM (inactive)	> 100 µM (inactive)	> 100 µM (inactive)	> 100 µM (inactive)	> 100 µM (inactive)	> 100 µM (inactive)	> 100 µM (inactive)
CN1CCN(c2ccc3[nH]c(-c4ccc5[nH]c(-c6ccc(N(C)CCCl)cc6)nc5c4)nc3c2)CC1	18.7 µM (inactive)	0.239 µM (active)	0.136 µM (active)	9.64 µM (inactive)	0.22 µM (active)	0.0301 µM (active)	0.156 µM (active)	0.222 µM (active)	12.6	1.62 µM (inactive)	0.0622 µM (active)	2.45 µM (inactive)	0.247 µM (active)	0.217 µM (active)	0.0127 µM (active)	–	0.128 µM (active)	4.41 µM (inactive)	0.305 µM (active)	0.222 µM (active)
COc1cc(/C=N/N=C2NCCCCN2)ccc1O	> 100 µM (inactive)	> 100 µM (inactive)	> 100 µM (inactive)	> 100 µM (inactive)	> 100 µM (inactive)	> 100 µM (inactive)	> 100 µM (inactive)	> 100 µM (inactive)	> 100	> 100 µM (inactive)	> 100 µM (inactive)	> 100 µM (inactive)	> 100 µM (inactive)	80 µM (inactive)	> 100 µM (inactive)	> 100 µM (inactive)	> 100 µM (inactive)	–	> 100 µM (inactive)	> 100 µM (inactive)
